The source of these data is PMC3942691, “The Dipeptide Monoester Prodrugs of Floxuridine and Gemcitabine—Feasibility of Orally Administrable Nucleoside Analogs” (Pharmaceuticals, 2014).

One data set concerns AsPC-1 cell homogenates. In words: Enzymatic stability in AsPC-1 cell homogenates. To be noted: 500 µg/mL protein, 37 °C. The format is in vitro ADME. On the procedure: (§1) Confluent Caco-2, Panc-1, and AsPC-1cells were rinsed twice with phosphate buffered saline (PBS). The cells were lysed with phosphate buffer (pH 7.4) by ultrasonication (Micro ultrasonic cell disrupter Model KT40, Kontes, Vineland, NJ, USA), and pelleted by centrifugation for 5 min at 1,000 × g. Protein amount was quantified with the Bio-Rad (Hercules, CA, USA) DC Protein Assay using bovine serum albumin as a standard. The amount of protein was adjusted to 500 µg/mL and hydrolysis reactions were carried out in 96-well plates (Corning). […] The filtrate was then analyzed via reverse-phase HPLC.
(§2) The stability samples of prodrugs and their metabolites, and perfusion samples were determined on an Agilent HPLC system (Agilent Technologies, Santa Clara, CA, USA). […] Standard curves generated for each prodrug and their parent drug were utilized for quantitation of integrated area under peaks. […]
(§3) The experiments concerning drug and their prodrug stability were performed at 37 °C in 0.01 N HCl, SIF (pH 6.0), and pH 7.4 phosphate buffer. […] Prodrug metabolites such as floxuridine, 5-fluorouracil (5-FU), gemcitabine, 2′-deoxy-2′,2′-difluorouridine, uracil, and cytosine were monitored along with prodrug disappearance in this experiment.

Data set [1] is described as follows: Enzymatic stability in AsPC-1 cell homogenates. Format: in vitro ADME. The note with it: human, AsPC-1 cell homogenates, pH 7.4; 500 µg/mL protein, 37 °C; read-out: AsPC-1 cell homogenates t1/2. On the procedure:
as §1, §2, §3

Another data set relates to AsPC-1 cells. Further details: method as in PMID 18652477. The note with it: cited from earlier work.

For “2′,2′-difluoro-2′-deoxyuridine [Gemcitabine]”, the “AsPC-1 cell homogenates t1/2” value with AsPC-1 cell homogenates worked out at 33.7 ± 14.5 min.
Take `Nc1ccn(C2OC(COC(=O)C(Cc3ccc(O)cc3)NC(=O)C(N)Cc3ccccc3)C(O)C2(F)F)c(=O)n1` [5′-L-Phenylalanyl-L-tyrosyl-gemcitabine]: the half-life in data set [1] stood at 8.1 ± 0.6 min.
The term GI50 denotes the concentration at which growth is held to half of that of the control. As to `O=c1[nH]c(=O)n([C@H]2C[C@H](O)[C@@H](CO)O2)cc1F` [Floxuridine, 5-fluoro-2′-deoxyuridine], the concentration for 50% growth inhibition (GI50) in the data set with AsPC-1 cells is 22.9 ± 5.7 mM.
